Laboratory results taken from patent US10786484B2, “Mono- or di-substituted indole derivatives as dengue viral replication inhibitors” (Janssen Pharmaceuticals, Inc., priority 2015, dated 2020).

Assays:
[1] = tested on: DENV-2 16681 strain labeled with eGFP; experiment: DENV-2 antiviral assay (eGFP fluorescence read-out in Vero cells); type: cell-based, Dengue virus; details: DENV-2 16681 eGFP, MOI 0.5, 3 days
Experimental: The antiviral activity of all the compounds of the invention was tested against the DENV-2 16681 strain which was labeled with enhanced green fluorescent protein (eGPF). The culture medium consists of minimal essential medium supplemented with 2% of heat-inactivated fetal calf serum, 0.04% gentamycin (50 mg/mL) and 2 mM of L-glutamine. Vero cells, obtained from ECACC, were suspended in culture medium and 25 μL was added to 384-well plates (2500 cells/well), which already contain the antiviral compounds. Typically, these plates contain a 5-fold serial dilution of 9 dilution steps of the test compound at 200 times the final concentration in 100% DMSO (200 nL). […] Finally, each plate contains wells which are assigned as virus controls (containing cells and virus in the absence of compound), cell controls (containing cells in the absence of virus and compound) and medium controls (containing medium in the absence of cells, virus and compounds). To the wells assigned as medium control, 25 μL of culture medium was added instead of Vero cells. Once the cells were added to the plates, the plates were incubated for 30 minutes at room temperature to allow the cells to distribute evenly within the wells. Next, the plates were incubated in a fully humidified incubator (37° C., 5% CO2) until the next day. Then, DENV-2 strain 16681, labeled with eGFP, was added at a multiplicity of infection (MOI) of 0.5. Therefore, 15 μL of virus suspension was added to all the wells containing test compound and to the wells assigned as virus control. In parallel, 15 μL of culture medium was added to the medium and cell controls. Next, the plates were incubated for 3 days in a fully humidified incubator (37° C., 5% CO2). At the day of the read out, the eGFP fluorescence was measured using an automated fluorescence microscope at 488 nm (blue laser). Using an in-house LIMS system, inhibition dose response curves for each compound were calculated and the half maximal effective concentration (EC50) was determined. Therefore, the percent inhibition (I) for every test concentration is calculated using the following formula: I=100*([…])/(SVC−SCC); ST, SCC and SVC are the amount of eGFP signal in the test compound, cell control and virus control wells, respectively. The EC50 represents the concentration of a compound at which the virus replication is inhibited with 50%, as measured by a 50% reduction of the eGFP fluorescent intensity compared to the virus control. The EC50 is calculated using linear interpolation (Table 1).

Vero cells = details: African green monkey

SMILES	EC50 [1] [µM]	CC50 (Vero cells) [µM]
COc1cc(NC(C(=O)c2c[nH]c3cc(F)ccc23)c2ccc(F)cc2OCCO)cc(S(C)(=O)=O)c1 (single isomer, unassigned) [Compound 1B, 1-(6-fluoro-1H-indol-3-yl)-2-(4-fluoro-2-(2-hydroxyethoxy)phenyl)-2-((3-methoxy-5-(methylsulfonyl)phenyl)amino)ethanone]	0.085	13
COc1cc(NC(C(=O)c2c[nH]c3cc(Cl)ccc23)c2ccc(F)cc2OCCO)cc(S(C)(=O)=O)c1 (single isomer, unassigned) [Compound 2B, 1-(6-chloro-1H-indol-3-yl)-2-(4-fluoro-2-(2-hydroxyethoxy)phenyl)-2-((3-methoxy-5-(methylsulfonyl)phenyl)amino)-ethanone]	0.021	12
COc1cc(NC(C(=O)c2c[nH]c3c(C)c(F)ccc23)c2ccc(F)cc2OCCO)cc(S(C)(=O)=O)c1 (single isomer, unassigned) [Compound 3B, 2-(4-fluoro-2-(2-hydroxyethoxy)phenyl)-1-(6-fluoro-7-methyl-1H-indol-3-yl)-2-((3-methoxy-5-(methylsulfonyl)phenyl)amino)ethanone]	0.029	11
COc1cc(NC(C(=O)c2c[nH]c3c(C)c(Cl)ccc23)c2ccc(F)cc2OCCO)cc(S(C)(=O)=O)c1 (single isomer, unassigned) [Compound 4A, 1-(6-chloro-7-methyl-1H-indol-3-yl)-2-(4-fluoro-2-(2-hydroxyethoxy)phenyl)-2-((3-methoxy-5-(methylsulfonyl)phenyl)amino)ethanone]	0.011	11
COc1cc(NC(C(=O)c2c[nH]c3cc(F)c(F)cc23)c2ccc(F)cc2OCCO)cc(S(C)(=O)=O)c1 (single isomer, unassigned) [Compound 5B, 1-(5,6-difluoro-1H-indol-3-yl)-2-(4-fluoro-2-(2-hydroxyethoxy)phenyl)-2-((3-methoxy-5-(methylsulfonyl)phenyl)-amino)ethanone]	0.016	11
COc1cc(NC(C(=O)c2c[nH]c3cc(OC)c(C)cc23)c2ccc(F)cc2OCCO)cc(S(C)(=O)=O)c1 (single isomer, unassigned) [Compound 6B, 2-(4-fluoro-2-(2-hydroxyethoxy)phenyl)-2-((3-methoxy-5-(methylsulfonyl)phenyl)amino)-1-(6-methoxy-5-methyl-1H-indol-3-yl)ethanone]	0.16	13
COc1cc(NC(C(=O)c2c[nH]c3cc(F)c(C)cc23)c2ccc(F)cc2OCCO)cc(S(C)(=O)=O)c1 (single isomer, unassigned) [Compound 7B, 2-(4-fluoro-2-(2-hydroxyethoxy)phenyl)-1-(6-fluoro-5-methyl-1H-indol-3-yl)-2-((3-methoxy-5-(methylsulfonyl)phenyl)amino)ethanone]	0.036	8
COc1cc(NC(C(=O)c2c[nH]c3c(F)cc(C)cc23)c2ccc(F)cc2OCCO)cc(S(C)(=O)=O)c1 (single isomer, unassigned) [Compound 8B, 2-(4-fluoro-2-(2-hydroxyethoxy)phenyl)-1-(7-fluoro-5-methyl-1H-indol-3-yl)-2-((3-methoxy-5-(methylsulfonyl)phenyl)amino)ethanone]	0.048	8.2
COc1cc(NC(C(=O)c2c[nH]c3c(C)cc(Cl)cc23)c2ccc(F)cc2OCCO)cc(S(C)(=O)=O)c1 (single isomer, unassigned) [Compound 9B, 1-(5-chloro-7-methyl-1H-indol-3-yl)-2-(4-fluoro-2-(2-hydroxyethoxy)phenyl)-2-((3-methoxy-5-(methylsulfonyl)phenyl)amino)ethanone]	0.051	13
COc1cc(NC(C(=O)c2c[nH]c3ccc(OC(F)(F)F)cc23)c2ccc(F)cc2OCCO)cc(S(C)(=O)=O)c1 (single isomer, unassigned) [Compound 10A, 2-(4-fluoro-2-(2-hydroxyethoxy)phenyl)-2-((3-methoxy-5-(methylsulfonyl)phenyl)amino)-1-(5-(trifluoromethoxy)-1H-indol-3-yl)ethanone]	0.02	12
COc1cc(NC(C(=O)c2c[nH]c3cc(OC)c(OC(F)(F)F)cc23)c2ccc(F)cc2OCCO)cc(S(C)(=O)=O)c1 (single isomer, unassigned) [Compound 11A, 2-(4-fluoro-2-(2-hydroxyethoxy)phenyl)-2-((3-methoxy-5-(methyl-sulfonyl)phenyl)amino)-1-(6-methoxy-5-(trifluoromethoxy)-1H-indol-3-yl)ethanone]	0.019	12
COc1cc(NC(C(=O)c2c[nH]c3c(C)cc(OC(F)(F)F)cc23)c2ccc(F)cc2OCCO)cc(S(C)(=O)=O)c1 (single isomer, unassigned) [Compound 12B, 2-(4-fluoro-2-(2-hydroxyethoxy)phenyl)-2-((3-methoxy-5-(methylsulfonyl)phenyl)amino)-1-(7-methyl-5-(trifluoromethoxy)-1H-indol-3-yl)ethanone]	0.0012	9.9
